Laboratory results taken from ChEMBL document CHEMBL1201862, “PubChem BioAssay data set” (2004).
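Briefly, cells in 96-well plates were exposed to five compound concentrations for 48 h, and endpoints were estimated by linear interpolation. Abbreviation: GI50, concentration required for 50% inhibition of growth.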 Active and inactive are the calls of the source. No stated cut-off is given here; in the data, active = GI50 up to about 1.1 µM and inactive = higher.

Legend:
Test in all cases: NCI-60 cell line screen, 48 h
SNB-19 = tested on: SNB-19
SF-268 = tested on: SF-268
OVCAR-8 = tested on: OVCAR-8
A498 = tested on: A498
NCI-H460 = tested on: NCI-H460
SK-MEL-5 = tested on: SK-MEL-5
NCI-H522 = tested on: NCI-H522
OVCAR-4 = tested on: OVCAR-4
UACC-257 = tested on: UACC-257
KM12 = tested on: KM12
SK-MEL-2 = tested on: SK-MEL-2
UACC-62 = tested on: UACC-62
OVCAR-5 = tested on: OVCAR-5
U-251 = tested on: U-251
A549 = tested on: A549
MOLT-4 = tested on: MOLT-4
RXF 393 = tested on: RXF 393
HCC 2998 = tested on: HCC 2998
786-0 = tested on: 786-0
COLO 205 = tested on: COLO 205
SK-OV-3 = tested on: SK-OV-3
HCT-116 = tested on: HCT-116
TK-10 = tested on: TK-10
OVCAR-3 = tested on: OVCAR-3
LXFL 529 = tested on: LXFL 529
HL-60 = tested on: HL-60
NCI-H23 = tested on: NCI-H23
DLD-1 = tested on: DLD-1
RPMI-8226 = tested on: RPMI-8226
K562 = tested on: K562
Malme-3M = tested on: Malme-3M
M19-MEL = tested on: M19-MEL
EKVX = tested on: EKVX
KM-20L2 = tested on: KM-20L2
IGROV-1 = tested on: IGROV-1
HT-29 = tested on: HT-29
UO-31 = tested on: UO-31
SN12C = tested on: SN12C
SF-295 = tested on: SF-295
CAKI-1 = tested on: CAKI-1
CCRF-CEM = tested on: CCRF-CEM
SF-539 = tested on: SF-539
LOX IMVI = tested on: LOX IMVI
SK-MEL-28 = tested on: SK-MEL-28
ACHN = tested on: ACHN
M14 = tested on: M14
HCT-15 = tested on: HCT-15
SW-620 = tested on: SW-620
XF498 = tested on: XF498
HOP-92 = tested on: HOP-92
SNB-78 = tested on: SNB-78
DMS-273 = tested on: DMS-273
SR = tested on: SR
DMS-114 = tested on: DMS-114
NCI-H226 = tested on: NCI-H226

COc1cc(/C=C2/C(=O)N(C(=O)c3ccc(Cl)cc3)N=C2C)cc(OC)c1OC
GI50 (SNB-19): > 100 µM (inactive) | GI50 (SF-268): > 100 µM (inactive) | GI50 (OVCAR-8): > 100 µM (inactive) | GI50 (A498): > 100 µM (inactive) | GI50 (NCI-H460): > 100 µM (inactive) | GI50 (SK-MEL-5): > 100 µM (inactive) | GI50 (NCI-H522): > 100 µM (inactive) | GI50 (OVCAR-4): > 100 µM (inactive) | GI50 (UACC-257): > 100 µM (inactive) | GI50 (KM12): > 100 µM (inactive) | GI50 (SK-MEL-2): > 100 µM (inactive) | GI50 (UACC-62): > 100 µM (inactive) | GI50 (OVCAR-5): > 100 µM (inactive) | GI50 (U-251): > 100 µM (inactive) | GI50 (A549): > 100 µM (inactive) | GI50 (MOLT-4): > 100 µM (inactive) | GI50 (RXF 393): > 100 µM (inactive) | GI50 (HCC 2998): > 100 µM (inactive) | GI50 (786-0): > 100 µM (inactive) | GI50 (COLO 205): > 100 µM (inactive) | GI50 (SK-OV-3): > 100 µM (inactive) | GI50 (HCT-116): > 100 µM (inactive) | GI50 (TK-10): > 100 µM (inactive) | GI50 (OVCAR-3): > 100 µM (inactive) | GI50 (LXFL 529): > 100 µM (inactive) | GI50 (HL-60): > 100 µM (inactive) | GI50 (NCI-H23): > 100 µM (inactive) | GI50 (DLD-1): > 100 µM (inactive) | GI50 (RPMI-8226): > 100 µM (inactive) | GI50 (K562): > 100 µM (inactive) | GI50 (Malme-3M): > 100 µM (inactive) | GI50 (M19-MEL): > 100 µM (inactive) | GI50 (EKVX): > 100 µM (inactive) | GI50 (KM-20L2): > 100 µM (inactive) | GI50 (IGROV-1): > 100 µM (inactive) | GI50 (HT-29): > 100 µM (inactive) | GI50 (UO-31): > 100 µM (inactive) | GI50 (SN12C): > 100 µM (inactive) | GI50 (SF-295): > 100 µM (inactive) | GI50 (CAKI-1): > 100 µM (inactive) | GI50 (CCRF-CEM): > 100 µM (inactive) | GI50 (SF-539): > 100 µM (inactive) | GI50 (LOX IMVI): > 100 µM (inactive) | GI50 (SK-MEL-28): > 100 µM (inactive) | GI50 (ACHN): > 100 µM (inactive) | GI50 (M14): > 100 µM (inactive) | GI50 (HCT-15): > 100 µM | GI50 (SW-620): > 100 µM (inactive) | GI50 (XF498): > 100 µM (inactive) | GI50 (HOP-92): > 100 µM (inactive) | GI50 (SNB-78): > 100 µM (inactive)

COC(=O)c1cc(Cl)ccc1NC(=O)C1CCCCC1
GI50 (SNB-19): > 100 µM (inactive) | GI50 (SF-268): 48.1 µM (inactive) | GI50 (OVCAR-8): > 100 µM (inactive) | GI50 (UACC-257): > 100 µM (inactive) | GI50 (KM12): > 100 µM (inactive) | GI50 (SK-MEL-2): > 100 µM (inactive) | GI50 (OVCAR-5): > 100 µM (inactive) | GI50 (U-251): > 100 µM (inactive) | GI50 (A549): > 100 µM (inactive) | GI50 (MOLT-4): 23.2 µM (inactive) | GI50 (RXF 393): 33.1 µM (inactive) | GI50 (DMS-273): > 100 µM (inactive) | GI50 (HCC 2998): > 100 µM (inactive) | GI50 (SR): > 100 µM (inactive) | GI50 (786-0): > 100 µM (inactive) | GI50 (COLO 205): > 100 µM (inactive) | GI50 (HCT-116): > 100 µM (inactive) | GI50 (TK-10): 92.7 µM (inactive) | GI50 (LXFL 529): > 100 µM (inactive) | GI50 (DMS-114): > 100 µM (inactive) | GI50 (NCI-H23): > 100 µM (inactive) | GI50 (RPMI-8226): > 100 µM (inactive) | GI50 (K562): > 100 µM (inactive) | GI50 (Malme-3M): > 100 µM (inactive) | GI50 (EKVX): > 100 µM (inactive) | GI50 (KM-20L2): > 100 µM (inactive) | GI50 (HT-29): > 100 µM (inactive) | GI50 (UO-31): 17.6 µM (inactive) | GI50 (NCI-H226): > 100 µM (inactive) | GI50 (SN12C): 74.6 µM (inactive) | GI50 (SF-295): > 100 µM (inactive) | GI50 (SF-539): > 100 µM (inactive) | GI50 (SK-MEL-28): > 100 µM (inactive) | GI50 (ACHN): > 100 µM (inactive) | GI50 (HCT-15): > 100 µM | GI50 (SW-620): > 100 µM (inactive) | GI50 (HOP-92): 22.8 µM (inactive) | GI50 (SNB-78): > 100 µM (inactive)
